Assay results reported in ChEMBL document CHEMBL1671627, “Increasing trends in antimicrobial resistance among clinically important anaerobes and Bacteroides fragilis isolates causing nosocomial infections: emerging resistance to carbapenems” (2008).
≈ marks a conversion by molar mass, not a printed value.

How the values were obtained:
Finegoldia magna [1] = assay: Antibacterial activity against beta-lactamase producing Finegoldia magna assessed as susceptible isolates by CLSI agar dilution method; format: functional
Phocaeicola vulgatus [2] = assay: Antibacterial activity against beta-lactamase producing Bacteroides vulgatus by CLSI agar dilution method; format: functional
Bacteroides uniformis [3] = assay: Antibacterial activity against beta-lactamase producing Bacteroides uniformis assessed as susceptible isolates by CLSI agar dilution method; format: functional
[4] = tested on: Clostridium paraputrificum; assay: Antibacterial activity against beta-lactamase producing Clostridium paraputrificum by CLSI agar dilution method; format: functional
Bacteroides uniformis [5] = assay: Antibacterial activity against beta-lactamase producing Bacteroides uniformis by CLSI agar dilution method; format: functional
[6] = tested on: Fusobacterium necrophorum; assay: Antibacterial activity against Fusobacterium necrophorum assessed as resistant isolates by CLSI agar dilution method; format: functional
[7] = tested on: Prevotella melaninogenica; assay: Antibacterial activity against Prevotella melaninogenica assessed as susceptible isolates by CLSI agar dilution method; format: functional
Clostridium septicum [8] = assay: Antibacterial activity against beta-lactamase producing Clostridium septicum by CLSI agar dilution method; format: functional
[9] = tested on: Bacteroides thetaiotaomicron; assay: Antibacterial activity against beta-lactamase producing Bacteroides thetaiotaomicron by CLSI agar dilution method; format: functional
Bacteroides fragilis [10] = assay: Antibacterial activity against Bacteroides fragilis assessed as resistant isolates by CLSI agar dilution method; format: functional
[11] = tested on: Peptostreptococcus anaerobius; assay: Antibacterial activity against beta-lactamase producing Peptostreptococcus anaerobius by CLSI agar dilution method; format: functional
Bacteroides caccae [12] = assay: Antibacterial activity against beta-lactamase producing Bacteroides caccae assessed as resistant isolates by CLSI agar dilution method; format: functional
Prevotella intermedia [13] = assay: Antibacterial activity against Prevotella intermedia by CLSI agar dilution method; format: functional
Clostridium septicum [14] = assay: Antibacterial activity against beta-lactamase producing Clostridium septicum assessed as resistant isolates by CLSI agar dilution method; format: functional
Parvimonas micra [15] = assay: Antibacterial activity against beta-lactamase producing Micromonas micros by CLSI agar dilution method; format: functional
Fusobacterium varium [16] = assay: Antibacterial activity against Fusobacterium varium assessed as susceptible isolates by CLSI agar dilution method; format: functional
Fusobacterium nucleatum [17] = assay: Antibacterial activity against Fusobacterium nucleatum assessed as susceptible isolates by CLSI agar dilution method; format: functional
Clostridium tertium [18] = assay: Antibacterial activity against beta-lactamase producing Clostridium tertium assessed as susceptible isolates by CLSI agar dilution method; format: functional
Bacteroides fragilis [19] = assay: Antibacterial activity against Bacteroides fragilis by CLSI agar dilution method; format: functional
Fusobacterium mortiferum [20] = assay: Antibacterial activity against Fusobacterium mortiferum assessed as resistant isolates by CLSI agar dilution method; format: functional
[21] = tested on: Peptoniphilus asaccharolyticus; assay: Antibacterial activity against beta-lactamase producing Peptoniphilus asaccharolyticus assessed as susceptible isolates by CLSI agar dilution method; format: functional
Fusobacterium varium [22] = assay: Antibacterial activity against Fusobacterium varium by CLSI agar dilution method; format: functional
[23] = tested on: Prevotella melaninogenica; assay: Antibacterial activity against Prevotella melaninogenica by CLSI agar dilution method; format: functional
Prevotella buccae [24] = assay: Antibacterial activity against Prevotella buccae by CLSI agar dilution method; format: functional; conditions: Segatella buccae
Prevotella intermedia [25] = assay: Antibacterial activity against Prevotella intermedia assessed as susceptible isolates by CLSI agar dilution method; format: functional
Clostridium tertium [26] = assay: Antibacterial activity against beta-lactamase producing Clostridium tertium assessed as resistant isolates by CLSI agar dilution method; format: functional
Finegoldia magna [27] = assay: Antibacterial activity against beta-lactamase producing Finegoldia magna assessed as resistant isolates by CLSI agar dilution method; format: functional
[28] = tested on: Bacteroides thetaiotaomicron; assay: Antibacterial activity against beta-lactamase producing Bacteroides thetaiotaomicron assessed as susceptible isolates by CLSI agar dilution method; format: functional
Fusobacterium nucleatum [29] = assay: Antibacterial activity against Fusobacterium nucleatum assessed as resistant isolates by CLSI agar dilution method; format: functional
Phocaeicola vulgatus [30] = assay: Antibacterial activity against beta-lactamase producing Bacteroides vulgatus assessed as susceptible isolates by CLSI agar dilution method; format: functional
Prevotella intermedia [31] = assay: Antibacterial activity against Prevotella intermedia assessed as resistant isolates by CLSI agar dilution method; format: functional
Finegoldia magna [32] = assay: Antibacterial activity against beta-lactamase producing Finegoldia magna by CLSI agar dilution method; format: functional
Prevotella bivia [33] = assay: Antibacterial activity against Prevotella bivia by CLSI agar dilution method; format: functional
[34] = tested on: Clostridium paraputrificum; assay: Antibacterial activity against beta-lactamase producing Clostridium paraputrificum assessed as susceptible isolates by CLSI agar dilution method; format: functional
[35] = tested on: Peptoniphilus asaccharolyticus; assay: Antibacterial activity against beta-lactamase producing Peptoniphilus asaccharolyticus by CLSI agar dilution method; format: functional
Bacteroides caccae [36] = assay: Antibacterial activity against beta-lactamase producing Bacteroides caccae assessed as susceptible isolates by CLSI agar dilution method; format: functional
Prevotella buccae [37] = assay: Antibacterial activity against Prevotella buccae assessed as resistant isolates by CLSI agar dilution method; format: functional, Segatella buccae
Fusobacterium varium [38] = assay: Antibacterial activity against Fusobacterium varium assessed as resistant isolates by CLSI agar dilution method; format: functional
Prevotella bivia [39] = assay: Antibacterial activity against Prevotella bivia assessed as resistant isolates by CLSI agar dilution method; format: functional
[40] = tested on: Prevotella melaninogenica; assay: Antibacterial activity against Prevotella melaninogenica assessed as resistant isolates by CLSI agar dilution method; format: functional
Fusobacterium mortiferum [41] = assay: Antibacterial activity against Fusobacterium mortiferum by CLSI agar dilution method; format: functional
[42] = tested on: Clostridium paraputrificum; assay: Antibacterial activity against beta-lactamase producing Clostridium paraputrificum assessed as resistant isolates by CLSI agar dilution method; format: functional
Fusobacterium mortiferum [43] = assay: Antibacterial activity against Fusobacterium mortiferum assessed as susceptible isolates by CLSI agar dilution method; format: functional
[44] = tested on: Bacteroides thetaiotaomicron; assay: Antibacterial activity against beta-lactamase producing Bacteroides thetaiotaomicron assessed as resistant isolates by CLSI agar dilution method; format: functional
[45] = tested on: Peptoniphilus asaccharolyticus; assay: Antibacterial activity against beta-lactamase producing Peptoniphilus asaccharolyticus assessed as resistant isolates by CLSI agar dilution method; format: functional
[46] = tested on: Peptostreptococcus anaerobius; assay: Antibacterial activity against beta-lactamase producing Peptostreptococcus anaerobius assessed as resistant isolates by CLSI agar dilution method; format: functional
Bacteroides fragilis [47] = assay: Antibacterial activity against Bacteroides fragilis assessed as susceptible isolates by CLSI agar dilution method; format: functional
[48] = tested on: Peptostreptococcus anaerobius; assay: Antibacterial activity against beta-lactamase producing Peptostreptococcus anaerobius assessed as susceptible isolates by CLSI agar dilution method; format: functional
Phocaeicola vulgatus [49] = assay: Antibacterial activity against beta-lactamase producing Bacteroides vulgatus assessed as resistant isolates by CLSI agar dilution method; format: functional
Bacteroides uniformis [50] = assay: Antibacterial activity against beta-lactamase producing Bacteroides uniformis assessed as resistant isolates by CLSI agar dilution method; format: functional
Parvimonas micra [51] = assay: Antibacterial activity against beta-lactamase producing Micromonas micros assessed as resistant isolates by CLSI agar dilution method; format: functional
Fusobacterium nucleatum [52] = assay: Antibacterial activity against Fusobacterium nucleatum by CLSI agar dilution method; format: functional
Clostridium septicum [53] = assay: Antibacterial activity against beta-lactamase producing Clostridium septicum assessed as susceptible isolates by CLSI agar dilution method; format: functional
Prevotella buccae [54] = assay: Antibacterial activity against Prevotella buccae assessed as susceptible isolates by CLSI agar dilution method; format: functional, Segatella buccae
Clostridium tertium [55] = assay: Antibacterial activity against beta-lactamase producing Clostridium tertium by CLSI agar dilution method; format: functional
[56] = tested on: Fusobacterium necrophorum; assay: Antibacterial activity against Fusobacterium necrophorum assessed as susceptible isolates by CLSI agar dilution method; format: functional
Clostridium perfringens = assay: microbe, parasite or virus in culture; format: functional
Prevotella bivia [57] = assay: Antibacterial activity against Prevotella bivia assessed as susceptible isolates by CLSI agar dilution method; format: functional
Bacteroides caccae [58] = assay: Antibacterial activity against beta-lactamase producing Bacteroides caccae by CLSI agar dilution method; format: functional
[59] = tested on: Fusobacterium necrophorum; assay: Antibacterial activity against Fusobacterium necrophorum by CLSI agar dilution method; format: functional
Parvimonas micra [60] = assay: Antibacterial activity against beta-lactamase producing Micromonas micros assessed as susceptible isolates by CLSI agar dilution method; format: functional
Veillonella parvula = assay: Antibacterial activity against Veillonella parvula by CLSI agar dilution method; format: functional

SMILES: C[C@@H](O)[C@H]1C(=O)N2C(C(=O)O)=C(S[C@@H]3CN[C@H](CNS(N)(=O)=O)C3)[C@H](C)[C@H]12 [DORIPENEM]
- Activity (Finegoldia magna [1]): 100%
- MIC50 (Phocaeicola vulgatus [2]): 1 µg/mL (≈ 2.38 µM)
- MIC90 (Phocaeicola vulgatus [2]): 2 µg/mL (≈ 4.76 µM)
- Activity (Bacteroides uniformis [3]): 92%
- MIC [4]: 0.03 µg/mL (≈ 0.0713 µM)
- MIC50 [4]: 0.03 µg/mL (≈ 0.0713 µM)
- MIC90 [4]: 2 µg/mL (≈ 4.76 µM)
- MIC50 (Bacteroides uniformis [5]): 1 µg/mL (≈ 2.38 µM)
- MIC90 (Bacteroides uniformis [5]): 2 µg/mL (≈ 4.76 µM)
- Activity [6]: 0%
- Activity [7]: 100%
- MIC (Clostridium septicum [8]): 0.03 µg/mL (≈ 0.0713 µM)
- MIC50 (Clostridium septicum [8]): 0.03 µg/mL (≈ 0.0713 µM)
- MIC90 (Clostridium septicum [8]): 2 µg/mL (≈ 4.76 µM)
- MIC [9]: 0.5 µg/mL (≈ 1.19 µM)
- MIC50 [9]: 0.5 µg/mL (≈ 1.19 µM)
- MIC90 [9]: 2 µg/mL (≈ 4.76 µM)
- Activity (Bacteroides fragilis [10]): 7%
- MIC50 [11]: 0.06 µg/mL (≈ 0.143 µM)
- MIC90 [11]: 0.5 µg/mL (≈ 1.19 µM)
- Activity (Bacteroides caccae [12]): 4%
- MIC50 (Prevotella intermedia [13]): 0.25 µg/mL (≈ 0.595 µM)
- MIC90 (Prevotella intermedia [13]): 0.5 µg/mL (≈ 1.19 µM)
- Activity (Clostridium septicum [14]): 0%
- MIC50 (Parvimonas micra [15]): 0.06 µg/mL (≈ 0.143 µM)
- MIC90 (Parvimonas micra [15]): 0.5 µg/mL (≈ 1.19 µM)
- Activity (Fusobacterium varium [16]): 100%
- Activity (Fusobacterium nucleatum [17]): 100%
- Activity (Clostridium tertium [18]): 100%
- MIC50 (Bacteroides fragilis [19]): 0.5 µg/mL (≈ 1.19 µM)
- MIC90 (Bacteroides fragilis [19]): 8 µg/mL (≈ 19 µM)
- Activity (Fusobacterium mortiferum [20]): 0%
- Activity [21]: 100%
- MIC50 (Fusobacterium varium [22]): 0.12 µg/mL (≈ 0.285 µM)
- MIC90 (Fusobacterium varium [22]): 0.25 µg/mL (≈ 0.595 µM)
- MIC50 [23]: 0.25 µg/mL (≈ 0.595 µM)
- MIC90 [23]: 0.5 µg/mL (≈ 1.19 µM)
- MIC50 (Prevotella buccae [24]): 0.25 µg/mL (≈ 0.595 µM)
- MIC90 (Prevotella buccae [24]): 0.5 µg/mL (≈ 1.19 µM)
- Activity (Prevotella intermedia [25]): 100%
- Activity (Clostridium tertium [26]): 0%
- Activity (Finegoldia magna [27]): 0%
- Activity [28]: 97%
- Activity (Fusobacterium nucleatum [29]): 0%
- Activity (Phocaeicola vulgatus [30]): 92%
- Activity (Prevotella intermedia [31]): 0%
- MIC50 (Finegoldia magna [32]): 0.06 µg/mL (≈ 0.143 µM)
- MIC90 (Finegoldia magna [32]): 0.5 µg/mL (≈ 1.19 µM)
- MIC50 (Prevotella bivia [33]): 0.25 µg/mL (≈ 0.595 µM)
- MIC90 (Prevotella bivia [33]): 0.5 µg/mL (≈ 1.19 µM)
- Activity [34]: 100%
- MIC50 [35]: 0.06 µg/mL (≈ 0.143 µM)
- MIC90 [35]: 0.5 µg/mL (≈ 1.19 µM)
- Activity (Bacteroides caccae [36]): 92%
- Activity (Prevotella buccae [37]): 0%
- Activity (Fusobacterium varium [38]): 0%
- Activity (Prevotella bivia [39]): 0%
- Activity [40]: 0%
- MIC50 (Fusobacterium mortiferum [41]): 0.12 µg/mL (≈ 0.285 µM)
- MIC90 (Fusobacterium mortiferum [41]): 0.25 µg/mL (≈ 0.595 µM)
- Activity [42]: 0%
- Activity (Fusobacterium mortiferum [43]): 100%
- Activity [44]: 0%
- Activity [45]: 0%
- Activity [46]: 0%
- Activity (Bacteroides fragilis [47]): 88%
- Activity [48]: 100%
- Activity (Phocaeicola vulgatus [49]): 4%
- Activity (Bacteroides uniformis [50]): 4%
- Activity (Parvimonas micra [51]): 0%
- MIC50 (Fusobacterium nucleatum [52]): 0.12 µg/mL (≈ 0.285 µM)
- MIC90 (Fusobacterium nucleatum [52]): 0.25 µg/mL (≈ 0.595 µM)
- Activity (Clostridium septicum [53]): 100%
- Activity (Prevotella buccae [54]): 100%
- MIC (Clostridium tertium [55]): 0.03 µg/mL (≈ 0.0713 µM)
- MIC50 (Clostridium tertium [55]): 0.03 µg/mL (≈ 0.0713 µM)
- MIC90 (Clostridium tertium [55]): 2 µg/mL (≈ 4.76 µM)
- Activity [56]: 100%
- MIC (Clostridium perfringens): 0.03 µg/mL (≈ 0.0713 µM)
- MIC50 (Clostridium perfringens): 0.03 µg/mL (≈ 0.0713 µM)
- MIC90 (Clostridium perfringens): 2 µg/mL (≈ 4.76 µM)
- Activity (Prevotella bivia [57]): 100%
- MIC50 (Bacteroides caccae [58]): 1 µg/mL (≈ 2.38 µM)
- MIC90 (Bacteroides caccae [58]): 2 µg/mL (≈ 4.76 µM)
- MIC50 [59]: 0.12 µg/mL (≈ 0.285 µM)
- MIC90 [59]: 0.25 µg/mL (≈ 0.595 µM)
- Activity (Parvimonas micra [60]): 100%
- MIC (Veillonella parvula): 0.06 µg/mL (≈ 0.143 µM)
